Source: patent US20140356414A1, “Targeted Crosslinked Multilamellar Liposomes” (University of Southern California, priority 2013, published 2014)

How the values were obtained:
B16 cells = experiment: In vitro cytotoxicity, XTT assay, B16 cells; format: cell-based; conditions: 48 h
Procedure: B16 or HeLa cells were plated at a density of 5×10^3 cells per well in D10 media in 96-well plates and grown for 6 h. The cells were then exposed to a series of concentrations of Dox-loaded CMLs, ULs or DLLs for 48 h, and the cytotoxicity of Dox-liposomes was assessed using the Cell Proliferation Kit II (XTT assay) from Roche Applied Science, according to the manufacturer's instructions.

cardiac tissue = conditions: 20 mg/kg Dox equivalent, single i.v.
Text: FIGS. 9A-B. In vivo toxicity and tolerability. […] (A) Average mouse weight loss over time. […] Error bars represent the standard deviation of the mean; n=2 for each treatment group (*p<0.05, ***p<0.005).

[1] = Maximum tolerated dose study; conditions: for body weight: 8 days
Text: The mice were weighed and monitored daily for 8 days after injection.

COc1cccc2c1C(=O)c1c(O)c3c(c(O)c1C2=O)C[C@@](O)(C(=O)CO)C[C@@H]3O[C@H]1C[C@H](N)[C@H](O)[C@H](C)O1 [free Dox, doxorubicin]
half-maximal response (EC50) (B16 cells): similar
histopathologic changes in cardiac tissue (cardiac tissue): severe damage of cardiac tissue
body weight ([1]; 20 mg/kg Dox equivalent): significant loss of body weight
body weight ([1]; 40 mg/kg Dox equivalent): significant loss of body weight
general health / signs of toxicity ([1]; 40 mg/kg free Dox, CML-Dox groups): obvious signs of toxicity
maximum tolerated dose ([1]; single intravenous administration, C57BL/6 mice): < 20 mg/kg
